In patent US11479546B2, “Antimalarial hexahydropyrimidine analogues” (UCB Biopharma SRL, priority 2018, dated 2022):

System: Plasmodium falciparum 3D7
Test: P. falciparum 3D7 asexual blood stage assay, Assay Procedure Version 1 (SYBR green readout)
Assay type: cell-based
Conditions: 3D7, Erythrocyte, Version 1 of the assay procedure (no asterisk), 72 h incubation in infected erythrocytes, 10,000 nM to 0.51 nM
Description: Asexual Blood Stage Assay
The assay used to measure the effect of test compounds on a bloodstream stage of Plasmodium falciparum 3D7 strain employs SYBR green as the readout. This is a dye that binds to double stranded deoxyribonucleic acid (DNA) with a resulting increase in fluorescence, allowing detection of P. falciparum DNA in infected erythrocytes, and thereby providing a measure of parasite growth and propagation.
P. falciparum Culture Maintenance
Erythrocytes (A+blood) were prepared for both parasite culture and assay by washing 4 times with incomplete media (15.9 g RPMI 1640 (25 mM HEPES, L-glutamine), 1 g NaHCO3, 2 g glucose, 400 μL gentacin (500 mg/mL), 2 mL hypoxanthine solution (13.6 g/L in 0.1M NaOH pH 7.3) in 1 litre of media). The cells were centrifuged at 1800 g for 5 minutes, before decanting the supernatant and re-suspending in fresh incomplete media. On the final wash, the cells were re-suspended in complete media (incomplete media with 5 g/L AlbumaxII), and centrifuged at 1800 g for 3 minutes. This cell sediment was treated as 100% haematocrit.
P. falciparum 3D7 was cultured in erythrocytes at 5% haematocrit in complete media at 37° C. (1% O2, 3% CO2, balance N2). Cultures were split on a weekly basis to achieve a 1% parasitaemia in erythrocites at 5% haematocrit in fresh media. Culture media is replaced by fresh media every other day (2 times during the week).
Assay Procedure—Version 1
On day 1, test compounds were added to assay plates using Echo dispensing technology (3 fold dilution and 10 points titration). 50 nL of each compound dilution was added to 50 μL of culture (5% haematocrit, 0.5% parasitaemia) and incubated for 72 h at 37° C. (1% O2, 3% CO2, balance N2). Final concentrations of test compounds ranged from 10,000 nM to 0.51 nM, in […].
On day 4, 10 μL SYBR green (Invitrogen S7563 supplied as 10,000×concentrate in DMSO) pre-diluted to 3× concentrate with Lysis buffer (20 mM Tris pH 7.9, 5% EDTA, 0.16% w/v, 1.6% TX100 v/v) was added to the cultures and incubated in the dark, overnight, at room temperature.
On day 5, fluorescent signal was measured using a BioTek plate reader (excitation 485 nm, emission 528 nm). All data were processed using IDBS ActivityBase. Raw data were converted into percent inhibition through linear regression by setting the high inhibition control as 100% and the no inhibition control as 0%. Quality control criteria for passing plates were as follows: Z′>0.5, S:B>3, % CV(no inhibition control)<15. The formula used to calculate Z′ is
All EC50 curve fitting was undertaken using the following 4 parametric equation:
[formula] where A=% inhibition at bottom; B=% inhibition at top; C=EC50; D=slope; x=inhibitor concentration; and y=% inhibition. […] Assay Procedure—Version 2

IC50 [nM] | Compound
851 | C[C@@]1(c2cccc(Nc3cc(C(F)(F)F)cnc3Cl)c2Cl)CC(=O)N(C2CCOCC2)C(=N)N1 [Example 32, (6S)-6-(2-Chloro-3-{[2-chloro-5-(trifluoromethyl)pyridin-3-yl]amino}phenyl)-2-imino-6-methyl-3-(tetrahydropyran-4-yl)hexahydropyrimidin-4-one]
1810 | C[C@@]1(c2cccc(Nc3ccc(Cl)c(F)c3)c2Cl)CC(=O)N(C2CCOCC2)C(=N)N1 [Example 33, (6S)-6-[2-Chloro-3-(4-chloro-3-fluoroanilino)phenyl]-2-imino-6-methyl-3-(tetrahydropyran-4-yl)hexahydropyrimidin-4-one]
790 | C[C@@]1(c2cccc(Nc3cc(Cl)cc(C#N)c3)c2Cl)CC(=O)N(C2CCOCC2)C(=N)N1 [Example 34, 3-Chloro-5-{2-chloro-3-[(4S)-2-imino-4-methyl-6-oxo-1-(tetrahydropyran-4-yl)-hexahydropyrimidin-4-yl]-anilino}benzonitrile]
2380 | C[C@@]1(c2cccc(Nc3cn4ccccc4n3)c2Cl)CC(=O)N(C2CCOCC2)C(=N)N1 [Example 35, (6S)-6-[2-Chloro-3-(imidazo-[1,2-a]pyridin-2-ylamino)-phenyl]-2-imino-6-methyl-3-(tetrahydropyran-4-yl)-hexahydropyrimidin-4-one]
2900 | C[C@@]1(c2cccc(Nc3ccccc3F)c2Cl)CC(=O)N(C2CCOCC2)C(=N)N1 [Example 36, (6S)-6-[2-Chloro-3-(2-fluoro-anilino)phenyl]-2-imino-6-methyl-3-(tetrahydropyran-4-yl)hexahydropyrimidin-4-one]
1150 | C[C@@]1(c2cccc(Nc3ccc(OC(F)F)cc3)c2Cl)CC(=O)N(C2CCOCC2)C(=N)N1 [Example 37, (6S)-6-{2-Chloro-3-[4-(difluoro-methoxy)anilino]phenyl}-2-imino-6-methyl-3-(tetrahydro-pyran-4-yl)hexahydropyrimidin-4-one]
811 | C[C@@]1(c2cccc(Nc3cc(F)c(F)cc3F)c2Cl)CC(=O)N(C2CCOCC2)C(=N)N1 [Example 38, (6S)-6-[2-Chloro-3-(2,4,5-trifluoroanilino)phenyl]-2-imino-6-methyl-3-(tetrahydro-pyran-4-yl)hexahydropyrimidin-4-one]
2090 | C[C@@]1(c2cccc(Nc3ccc(S(C)(=O)=O)cc3)c2Cl)CC(=O)N(C2CCOCC2)C(=N)N1 [Example 39, (6S)-6-[2-Chloro-3-(4-methyl-sulfonylanilino)phenyl]-2-imino-6-methyl-3-(tetrahydro-pyran-4-yl)hexahydropyrimidin-4-one]
1510 | C[C@@]1(c2cccc(Nc3ccc(C#N)nc3)c2Cl)CC(=O)N(C2CCOCC2)C(=N)N1 [Example 40, 5-{2-Chloro-3-[(4S)-2-imino-4-methyl-6-oxo-1-(tetrahydro-pyran-4-yl)hexahydropyrimidin-4-yl]anilino}pyridine-2-carbo-nitrile]
1950 | C[C@@]1(c2cccc(Nc3cccc(S(C)(=O)=O)c3)c2Cl)CC(=O)N(C2CCOCC2)C(=N)N1 [Example 41, (6S)-6-[2-Chloro-3-(3-methyl-sulfonylanilino)phenyl]-2-imino-6-methyl-3-(tetrahydro-pyran-4-yl)hexahydropyrimidin-4-one]
652 | C[C@@]1(c2cccc(Nc3ccc(F)cc3F)c2Cl)CC(=O)N([C@H]2C[C@@](C)(O)C2)C(=N)N1 [Example 120, (6S)-6-[2-Chloro-3-(2,4-difluoroanilino)phenyl]-3-(3-hydroxy-3-methylcyclobutyl)-2-imino-6-methylhexahydro-pyrimidin-4-one]
1660 | C[C@@]1(c2cccc(Nc3ccc(C#N)c(F)c3)c2Cl)CC(=O)N([C@H]2C[C@@](C)(O)C2)C(=N)N1 [Example 121, 4-{2-Chloro-3-[(4S)-1-(3-hydroxy-3-methylcyclobutyl)-2-imino-4-methyl-6-oxo-hexahydropyrimidin-4-yl]-anilino}-2-fluorobenzonitrile]
2280 | COc1ccc(Nc2cccc([C@]3(C)CC(=O)N(C4CCOCC4)C(=N)N3)c2Cl)cc1 [Example 159, (6S)-6-[2-Chloro-3-(4-methoxy-anilino)phenyl]-2-imino-6-methyl-3-(tetrahydropyran-4-yl)hexahydropyrimidin-4-one]
1680 | Cc1ccc(Nc2cccc([C@]3(C)CC(=O)N(C4CCOCC4)C(=N)N3)c2Cl)cc1 [Example 160, (6S)-6-[2-Chloro-3-(4-methyl-anilino)phenyl]-2-imino-6-methyl-3-(tetrahydropyran-4-yl)hexahydropyrimidin-4-one]
1680 | COc1cc(Nc2cccc([C@]3(C)CC(=O)N(C4CCOCC4)C(=N)N3)c2Cl)cc(OC)c1 [Example 161, (6S)-6-[2-Chloro-3-(3,5-dimethoxyanilino)phenyl]-2-imino-6-methyl-3-(tetrahydro-pyran-4-yl)hexahydropyrimidin-4-one]
905 | C[C@@]1(c2cccc(Nc3ccc(Cl)cc3)c2Cl)CC(=O)N(C2CCOCC2)C(=N)N1 [Example 162, (6S)-6-[2-Chloro-3-(4-chloro-anilino)phenyl]-2-imino-6-methyl-3-(tetrahydropyran-4-yl)hexahydropyrimidin-4-one]
913 | C[C@@]1(c2cccc(Nc3cccc(C(F)(F)F)c3)c2Cl)CC(=O)N(C2CCOCC2)C(=N)N1 [Example 163, (6S)-6-{2-Chloro-3-[3-(trifluoromethyl)anilino]-phenyl}-2-imino-6-methyl-3-(tetrahydropyran-4-yl)-hexahydropyrimidin-4-one]
2200 | COc1ccc(Nc2cccc([C@]3(C)CC(=O)N(C4CCOCC4)C(=N)N3)c2Cl)cc1OC [Example 164, (6S)-6-[2-Chloro-3-(3,4-dimethoxyanilino)phenyl]-2-imino-6-methyl-3-(tetrahydro-pyran-4-yl)hexahydropyrimidin-4-one]
890 | Cc1ccccc1Nc1cccc([C@]2(C)CC(=O)N(C3CCOCC3)C(=N)N2)c1Cl [Example 165, (6S)-6-[2-Chloro-3-(2-methyl-anilino)phenyl]-2-imino-6-methyl-3-(tetrahydropyran-4-yl)hexahydropyrimidin-4-one]
1780 | COC(=O)c1cccc(Nc2cccc([C@]3(C)CC(=O)N(C4CCOCC4)C(=N)N3)c2Cl)c1 [Example 166, Methyl 3-{2-chloro-3-[(4S)-2-imino-4-methyl-6-oxo-1-(tetrahydropyran-4-yl)-hexahydropyrimidin-4-yl]-anilino}benzoate]
627 | C[C@@]1(c2cccc(Nc3ccc(F)c(Cl)c3)c2Cl)CC(=O)N(C2CCOCC2)C(=N)N1 [Example 167, (6S)-6-[2-Chloro-3-(3-chloro-4-fluoroanilino)phenyl]-2-imino-6-methyl-3-(tetrahydropyran-4-yl)hexahydropyrimidin-4-one]
252 | C[C@@]1(c2cccc(Nc3cccc(F)c3)c2Cl)CC(=O)N(C2CCOCC2)C(=N)N1 [Example 168, (6S)-6-[2-Chloro-3-(3-fluoro-anilino)phenyl]-2-imino-6-methyl-3-(tetrahydropyran-4-yl)hexahydropyrimidin-4-one]
1140 | C[C@@]1(c2cccc(Nc3ccc(F)cc3)c2Cl)CC(=O)N(C2CC3(COC3)C2)C(=N)N1 [Example 171, (6S)-6-[2-Chloro-3-(4-fluoro-anilino)phenyl]-2-imino-6-methyl-3-(2-oxaspiro[3.3]-heptan-6-yl)hexahydro-pyrimidin-4-one]
228 | CC1(O)CC(N2C(=N)N[C@](C)(c3cccc(Nc4ccc(F)cc4)c3Cl)CC2=O)C1 (stereo partly drawn) [Example 172, (6S)-6-[2-Chloro-3-(4-fluoro-anilino)phenyl]-3-(3-hydroxy-3-methylcyclobutyl)-2-imino-6-methylhexahydropyrimidin-4-one]
1540 | C[C@@]1(c2cccc(Nc3ccc(C(F)(F)F)cc3)c2Cl)CC(=O)N(CC2CCOCC2)C(=N)N1 [Example 173, (6S)-6-{2-Chloro-3-[4-(trifluoromethyl)anilino]-phenyl}-2-imino-6-methyl-3-(tetrahydropyran-4-ylmethyl)-hexahydropyrimidin-4-one]
2820 | CC1(CN2C(=N)N[C@](C)(c3cccc(Nc4ccc(F)cc4)c3Cl)CC2=O)COC1 [Example 175, (6S)-6-[2-Chloro-3-(4-fluoro-anilino)phenyl]-2-imino-6-methyl-3-[(3-methyloxetan-3-yl)methyl]hexahydropyrimidin-4-one]
